# Measured values reported in PubChem BioAssay AID720570 (Broad Institute, 2013).
# Activity calls are given as the source filed them.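 How the source made its calls: active means cell-killing curve crosses a set limit at a concentration no more than twice the top valid dose; inconclusive means flat curve with a 30 to 70% loss, or a poor fit; inactive means signal rising instead of falling, and the rest.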
# Assay: cytotoxicity in EWS/Fli1-dependent TC71 cells – cell-based, luminescence, cherry-picked samples, retest, confirmation (AID 720570)
# Settings: TC71 Ewing sarcoma viability, CellTiter-Glo ATP, 72 h; at 21 µM (top of the series)
row,SMILES,"activity change, negative = cytotoxicity"
1,COc1ccc(CN(C)C[C@H]2Oc3ccc(NC(=O)CCCCCC(=O)Nc4ccccc4N)cc3CC(=O)N([C@H](C)CO)C[C@H]2C)cc1,-5.04% (inactive)

# Same assay, conditions: TC71 Ewing sarcoma viability, CellTiter-Glo ATP, 72 h; at 23.5 µM (top of the series)
row,SMILES,"activity change, negative = cytotoxicity"
1,COC(=O)C[C@@H]1CC[C@@H]2[C@H](COc3ccc(NC(=O)c4cccc(Cl)c4)cc3C(=O)N2C)O1,2.41% (inactive)
2,COC(=O)C[C@@H]1CC[C@@H]2[C@H](COc3ccc(NC(=O)c4cccc(F)c4)cc3C(=O)N2C)O1,2.03% (inactive)
3,COC(=O)C[C@@H]1CC[C@H]2[C@H](COc3ccc(NC(=O)Nc4ccc(C#N)cc4)cc3C(=O)N2C)O1,4.96% (inactive)

# Same assay, conditions: TC71 Ewing sarcoma viability, CellTiter-Glo ATP, 72 h; at 26 µM (top of the series)
row,SMILES,"activity change, negative = cytotoxicity"
1,CC(C)c1oc(=O)cc2c1[C@@H](O)[C@H]1OC(=O)[C@@]3(C)CC[C@@H](O)[C@@]2(C)C13 (stereo not given in full),-18.6% (inactive)
2,CN(C)c1ccc(N=Nc2ccc(C(=O)O)cc2)cc1,9.97% (inactive)
3,CCNC(=O)[C@@H]1[C@@H](CO)[C@@H]2Cn3c(ccc(C4=CCCCC4)c3=O)[C@H]1N2CC,8.36% (inactive)
4,COc1ccccc1NS(=O)(=O)c1cc(NC(=O)c2cc3ccccc3oc2=O)ccc1C,1.31% (inactive)
5,O=C(CN1C(=O)c2ccccc2S1(=O)=O)c1ccc(F)cc1,12.8% (inactive)
6,CCc1ccc(N2C=C(C(=O)OC)C(c3ccc(OC)cc3)C(C#N)=C2N)cc1 (stereo not given),-7.67% (inactive)
7,Nc1ccc(-c2cc3ccccc3oc2=O)cc1,-3.32% (inactive)
8,CCCCOc1ccc(NC(=O)C(=O)NCCCn2ccnc2)cc1,-2% (inactive)
9,COc1ccc(CNc2ncc(-c3ccc(F)cc3)n2C)c2ccccc12,-1.83% (inactive)
10,COc1ccc(N=C2C(=O)Nc3ccc(C)c(Br)c32)cc1,5.89% (inactive)
11,O=C1C(=O)N(CCS(=O)(=O)c2ccccc2)c2ccc(Cl)cc21,20.1% (inactive)
12,C=CCn1c(O)c(N=Nc2ccccc2)c2ccccc21,10.5% (inactive)
13,COc1ccc(NC(=O)N(C)[C@H]2C[C@H]3c4[nH]c5ccccc5c4CCN3C(=O)[C@H]2CO)cc1,2.92% (inactive)
14,C[C@@H]1CCCCO[C@H](CN(C)Cc2ccc(C(F)(F)F)cc2)[C@H](C)CN([C@H](C)CO)C(=O)c2cc(NC(=O)CCCN(C)C)ccc2O1,-2.5% (inactive)
15,COc1ccc2cc(C(N)=O)/c(=N\NC(=O)c3ccccc3)oc2c1,16.9% (inactive)
16,CCC(C)Cn1c(O)cc2nn(-c3nc4ccccc4s3)c(=O)c-2c1C (stereo not given),-4.93% (inactive)
17,CO[C@H]1CN(C)C(=O)c2cc(NC(=O)c3ccc(Oc4ccccc4)cc3)ccc2OC[C@H](C)NC[C@@H]1C,-22.7% (inactive)
18,O=C(O)c1ccc2cc(-c3ccccc3)[nH]c2c1,10.6% (inactive)
19,COC(=O)C[C@@H]1CC[C@@H]2[C@@H](COc3ccc(NC(=O)Cc4cccs4)cc3C(=O)N2C)O1,14.1% (inactive)
20,COc1ccc(-c2sc3ccccc3c2-c2ccc(OCCN3CCCCC3)cc2)cc1,12.2% (inactive)
21,Cc1ccc(Cl)cc1NC(=O)Cn1cc(C(F)(F)F)cc(Cl)c1=O,2.53% (inactive)
22,O=c1cc(CN2CCN(Cc3ccccc3)CC2)c2ccc(O)c(O)c2o1,-9.02% (inactive)
23,COc1ccc(C(=O)CN2C(=O)c3ccccc3S2(=O)=O)cc1,19.9% (inactive)
24,Cc1ccc2c(c1)C(=O)N1[C@H]3c4cc(Br)ccc4OC[C@@H]3[C@H](c3ccccc3)[C@]1(C)C(=O)N2,-5.71% (inactive)
25,CCCCNC(=O)C(c1ccc(OCC(=O)OC)c(C(=O)OC)c1)N(CCOC)C(=O)CCCCCN1C(=O)NC(c2ccc(-c3ccccc3)cc2)C(C(=O)OCc2ccccc2)=C1C (stereo not given),19.3% (inactive)
26,Cc1c(Cl)cnc(NC(=O)COC(=O)c2ccc3ncsc3c2)c1Cl,5.39% (inactive)

row,SMILES,"activity change, negative = cytotoxicity"
1,Cc1noc(C)c1NC(=O)Nc1ccc2c(c1)CC(=O)N([C@@H](C)CO)C[C@@H](C)[C@@H](CN(C)Cc1ccc(Cl)c(Cl)c1)O2,-0.95% (inactive)
2,C/C(=N\OCc1cccc(C(=O)O)c1)c1ccc(Cl)cc1,-12.2% (inactive)
3,CC(NC(=O)c1ccco1)c1nc(-c2ccc(C(C)(C)C)cc2)no1 (stereo not given),-6.69% (inactive)
4,CN(C)C(=S)N=Nc1[nH]c2ccccc2c1O,16.9% (inactive)
5,CN(C)c1ccc(/C=N/Nc2nc3ccccc3o2)cc1,1.68% (inactive)
6,CCc1c(C(=O)NN2C(=O)C3CCCCC3C2=O)csc1C (stereo not given),23.1% (inactive)
7,CCOc1cc2[nH]c(=S)n(Cc3ccc(C(=O)N4CCN(C)CC4)cc3)c(=O)c2cc1OCC,11.2% (inactive)
8,O=C1Nc2ccccc2C1=Nc1ccc(Br)cc1,-5.59% (inactive)
9,C[C@H]1CN([C@@H](C)CO)S(=O)(=O)c2ccc(C#Cc3ccncc3)cc2O[C@@H]1CN(C)S(=O)(=O)c1ccccc1,-7.09% (inactive)
10,Cc1ccccc1N=Nc1c(O)n(C)c2ccccc12,3.17% (inactive)
11,COC(=O)c1cccc(NC(=O)NC(=O)c2ccc(Cl)cc2)c1,-16.8% (inactive)
12,O=C1Nc2cc(C(=O)NCCN3CCCCCC3)ccc2S/C1=C\c1ccccc1,-2.13% (inactive)
13,COC(=O)c1c(C)[nH]c(/C=N/Nc2ccccc2)c1C,7.36% (inactive)
14,Cc1ccsc1C(=O)OCC(=O)c1cc(C)n(C)c1C,15.6% (inactive)
15,COC(=O)COc1ccc(-c2nccc(-c3ccccn3)n2)cc1,7.95% (inactive)
16,Cc1cc(C(=O)NNC(=O)c2ccc(S(=O)(=O)N(C)C)cc2)c(C)o1,17.6% (inactive)
17,CCN(CC)c1ccc(C2NC(=O)c3ccccc3N2)cc1 (stereo not given),-26.2% (inactive)
18,CC(=NNc1ccc2ccccc2n1)c1ccccc1O,-20.9% (inactive)
19,O=C1Nc2ccccc2C1=Nc1ccccc1-c1ccccc1,11.4% (inactive)
20,Cc1cccc(/C=N/Nc2ccc3ccccc3n2)c1,-16.4% (inactive)
21,CN(C)[C@@H]1CCC[C@@H]1OC(=O)C(c1ccccc1)c1ccccc1,10.9% (inactive)
22,CCOC(=O)c1c(-c2ccc(C)cc2)csc1NC(=O)CCN1CCOCC1,13.3% (inactive)
23,C(=N\Nc1ccc2ccccc2n1)/c1ccc2c(c1)OCCO2,-8.46% (inactive)
24,Nc1ccc(-c2cc3ccccc3c(=O)o2)cc1,14.9% (inactive)
25,O=c1c2ccccc2oc2ccc(C#CC3(O)CCCCC3)cc12,-10.3% (inactive)
26,NC1=CC(=O)C(=O)c2cccnc21,1.93% (inactive)

row,SMILES,"activity change, negative = cytotoxicity"
1,CCCN1C(=O)/C(=C/c2nc3ccccc3c(=O)[nH]2)c2ccccc21,3.09% (inactive)
2,COc1ccc(Cl)cc1S(=O)(=O)Nc1ccc2c(c1)n(C)c(=O)n2C,-4.55% (inactive)
3,Cc1ccccc1N=CC1=C(O)c2ccccc2C1=O,20.2% (inactive)
4,COc1cc(OC)cc(-c2cc3nc(C)c(CCC(=O)O)c(C)n3n2)c1,13.7% (inactive)
5,COC(=O)C[C@@H]1CC[C@@H]2[C@H](COc3ccc(NC(=O)c4ccccc4)cc3C(=O)N2C)O1,7.67% (inactive)
6,COc1ccc(/C=C2/SC(=S)N(CCCC(=O)Nc3ccccc3C(=O)O)C2=O)cc1,15% (inactive)
7,O=C1CCC2S/C(=C/Nc3ccc(C(F)(F)F)cc3)C(=O)N12 (stereo not given),11.9% (inactive)
8,Nc1ccc(Oc2cccc(Oc3ccc(N)cc3)c2)cc1,-7.72% (inactive)
9,CCn1c(C)cc(C(=O)CN2C(=O)c3ccccc3S2(=O)=O)c1C,9.04% (inactive)
10,Cc1ccc(C(=O)O/N=C(\N)c2ccccn2)cc1,-10% (inactive)
11,CCN1CCN(/C=N/c2nc3c(s2)CCCC3)CC1,-11.1% (inactive)
12,C[C@@H]1CN([C@H](C)CO)S(=O)(=O)c2ccc(C#CC3CC3)cc2O[C@@H]1CN(C)Cc1ccccc1F,-4.35% (inactive)
13,C=C(C(=O)c1ccccc1)C(C(=C)C(=O)c1ccccc1)c1ccc(OC)cc1,10.8% (inactive)
14,O=C(Nc1ccc(OC(=O)N2CCCCC2)cc1)N1CCOCC1,2.31% (inactive)
15,CN(C(=O)COC(=O)c1cc(-c2ccccc2Cl)nc2ccccc12)C1CCS(=O)(=O)C1 (stereo not given),5.31% (inactive)
16,CC(C)(C)c1ccc(/C=N/Nc2ccc(C(=O)O)cc2)cc1,1.96% (inactive)
17,C/C=C/c1ccc(C2[C@@H]3CN(C(=O)Cc4ccccc4)C[C@H]2N3)cc1 (stereo not given in full),6.18% (inactive)
18,O=C1C(=O)N(CCS(=O)(=O)c2ccccc2)c2ccccc21,2.35% (inactive)
19,CCNC(=O)c1cccc(S(=O)(=O)N2CCCCCC2)c1,-7.03% (inactive)
20,C/C(=N\N(c1ccccc1)c1ccccc1)c1ccco1,12.8% (inactive)
21,O=C(COC(=O)c1ccc[nH]c1=O)Nc1ccc(N2CCCCC2)cc1,6.54% (inactive)
22,CNC[C@H](CC1CCCCC1)NC[C@H](CO)NCCc1cccc(C(F)(F)F)c1,3.89% (inactive)
23,COc1ccc(/C=C2\SC(=O)N(CCCC(=O)Nc3cc(Cl)ccc3C(=O)O)C2=O)cc1,5.69% (inactive)
24,COc1ccc(C/C(N)=N/OC(C)=O)cc1OC,9.15% (inactive)
